Laboratory results taken from article PMC11278660, “Molecular, Genetic, and Biochemical Characterization of OXA-484 Carbapenemase, a Difficult-to-Detect R214G Variant of OXA-181” (Microorganisms, 2024).
Read-outs that look alike come from different tables or passages of the source.

Columns and labels:
OXA-484 [1] = test system: T1, OXA-484; experiment: UV spectrophotometry, initial rates, Eadie-Hofstee plot; type: biochemical, Escherichia coli; conditions: 30 °C, 100 mM sodium phosphate, pH 7.0
T1 construct: gene blaOXA-484; mature beta-lactamase AA20-265 in pET41b(+), expressed in E. coli BL21(DE3), purified; gene 798 bp; natural variant equal to OXA-181 with R214G
Excerpt: UV spectrophotometry, initial rates, Eadie-Hofstee plot on OXA-484

OXA-484 [2] = test system: T1, OXA-484; experiment: inhibition of beta-lactam hydrolysis; type: biochemical, Escherichia coli; conditions: reporter substrate not stated

| Compound | Km (OXA-484 [1]; read-out: Km (μM) / OXA-484) | other results |
| --- | --- | --- |
| CC(=O)OCC1=C(C(=O)O)N2C(=O)[C@@H](NC(=O)Cc3cccs3)[C@H]2SC1 [Cefalotin] | 37 ± 2.6 µM | – |
| C[C@@H](O)[C@H]1C(=O)N2C(C(=O)O)=C(S[C@@H]3CN[C@H](C(=O)Nc4cccc(C(=O)O)c4)C3)[C@H](C)[C@H]12 [Ertapenem] | 27 ± 1.2 µM | – |
| CO[C@@]1(NC(=O)C(C(=O)O)c2ccsc2)C(=O)N2[C@@H](C(=O)O)C(C)(C)S[C@@H]21 (stereo partly shown) [Temocillin] | 178 ± 25.1 µM | – |
| C[C@@H](O)[C@H]1C(=O)N2C(C(=O)O)=C(SCCN=CN)C[C@H]12 [Imipenem] | 6 ± 2.1 µM | – |
| O=C(O)[C@H]1/C(=C/CO)O[C@@H]2CC(=O)N21 [clavulanic acid] | – | IC50 (OXA-484 [2]): 19 µM |
| C[C@]1(Cn2ccnn2)[C@H](C(=O)O)N2C(=O)C[C@H]2S1(=O)=O [tazobactam] | – | IC50 (OXA-484 [2]): 1.09 µM |
| CC1(C)S[C@@H]2[C@H](NC(=O)Cc3ccccc3)C(=O)N2[C@H]1C(=O)O [Benzylpenicillin] | 33 ± 1.9 µM | – |
| CO/N=C(\C(=O)N[C@@H]1C(=O)N2C(C(=O)O)=C(COC(C)=O)CS[C@H]12)c1csc(N)n1 [Cefotaxime] | – | Km (OXA-484 [1]; read-out: Km (μM) / OXA-181): > 1000 µM |
| C[C@@H](O)[C@H]1C(=O)N2C(C(=O)O)=C(S[C@@H]3CN[C@H](C(=O)N(C)C)C3)[C@H](C)[C@H]12 [Meropenem] | 263 ± 9.4 µM | – |
| CC1(C)S[C@@H]2[C@H](NC(=O)[C@H](N)c3ccccc3)C(=O)N2[C@H]1C(=O)O [Ampicillin] | 653 ± 72.2 µM | – |
